Results on eight compounds are retold here after patent US20150175655A1 (priority 2012, published 2015).

In the first experiment the target is T1, NS3 genotype 3a protease (UniProt Q81258).
T1 construct: Purified NS3 protease domain (amino acids 1-181) of the genotype 1b and 3a virus were generated as above; fused on or other part: N-terminal hexahistidine tag and rTEV protease cleavage site (vector p28-N6H-Tev-NS3(181)3)
T1 sequence (Q81258 1033-1663): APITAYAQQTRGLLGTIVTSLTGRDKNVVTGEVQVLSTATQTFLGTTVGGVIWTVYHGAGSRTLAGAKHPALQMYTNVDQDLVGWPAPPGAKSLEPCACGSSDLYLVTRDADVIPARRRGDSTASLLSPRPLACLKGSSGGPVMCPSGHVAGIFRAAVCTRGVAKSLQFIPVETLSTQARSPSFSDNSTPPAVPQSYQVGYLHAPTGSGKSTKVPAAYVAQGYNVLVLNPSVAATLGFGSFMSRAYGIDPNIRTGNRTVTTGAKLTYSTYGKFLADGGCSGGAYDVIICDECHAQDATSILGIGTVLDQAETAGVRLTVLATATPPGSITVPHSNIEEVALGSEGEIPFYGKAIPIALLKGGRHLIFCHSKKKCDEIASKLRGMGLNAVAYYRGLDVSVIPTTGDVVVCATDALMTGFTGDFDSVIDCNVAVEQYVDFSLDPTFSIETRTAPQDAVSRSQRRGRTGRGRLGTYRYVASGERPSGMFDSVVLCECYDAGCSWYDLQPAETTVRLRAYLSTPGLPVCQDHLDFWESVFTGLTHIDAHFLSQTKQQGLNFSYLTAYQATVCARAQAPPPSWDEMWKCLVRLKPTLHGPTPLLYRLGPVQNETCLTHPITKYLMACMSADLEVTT
In words: Ki determination, NS3 protease genotype 3a (fluorogenic depsipeptide substrate). It counts as biochemical, hepatitis C virus. Conditions: 200 pM enzyme, 20 μM NS4A peptide, 2 μM substrate, read-out: Ki 3A. An excerpt:
The coding sequences for the genotype 3 HCV protease domain was amplified by RT-PCR using a Titan One Tube RT-PCR Kit (Roche, Indianapolis, Ind.) and RNA extracted from HCV-positive human serum (BBI Diagnostics, MA) using a QIAmp UltraSens Virus Kit (Qiagen, Valencia, Calif.). 5′ PCR primers were designed to encode N-terminal hexahistidine tags and to insert in-frame rTEV protease cleavage sites into the NS3 protease coding sequences. The resulting DNA fragments were cloned into pET28 yielding the expression vectors p28-N6H-Tev-NS3(181)1a and p28-N6H-Tev-NS3(181)3, respectively.
BL21AI bacteria (Invitrogen, Carlsbad, Calif.) were transformed with genotype 1b or 3 NS3 expression vectors and used to inoculate a 20 L fermentation vessel (Sartorius BBI System Inc., Bethlehem, Pa.), containing 18 L of fresh 2YT medium supplemented with 50 μg/mL kanamycin. When cell densities reached an OD600 of 1, the temperature of the cultures was reduced from 37° C. to 28° C. and induction was immediately initiated by the addition of 30 μM ZnSO4, 14 mM L-arabinose and 1 mM Isopropyl β-D-thiogalactoside (IPTG) final concentrations. Cells were harvested by centrifugation four hours post-induction and were stored as frozen pellets at −80° C. prior to NS3 protein purification.
Bacterial pellets collected from the expression of genotype 3 HCV NS3 protease were homogenized in Lysis Buffer (25 mM tris, pH 7.5 buffer containing 150 mM NaCl and 1 mM phenylmethanesulfonyl fluoride (PMSF)) and passed through a microfluidizer at 18,000 pounds/in^2. Homogenized cell lysates were centrifuged at 30,000×g for 30 minutes at 4° C. The resulting P1 pellets were washed with Wash Buffer I (25 mM tris, pH 7.5 containing 1% CHAPS) followed by centrifugation at 10,000×g for 30 minutes at 4° C. […] The resulting P3 pellets were resuspended in Solubilization Buffer (20 ml of 25 mM tris, pH 7.5 containing 150 mM NaCl and 8 M urea) and incubated at 4° C. for one hour. Solubilized proteins were passed through a 0.45 micron filter. Protein concentrations were measured and the solutions were adjusted to 40 mM DTT, incubated for 30 minutes at 4° C. and then quickly diluted into Refolding Buffer (25 mM tris, pH 8.5, 0.8 M Guanidine-HCl, 0.4 M L-Arginine, 10 mM ZnSO4) while stirring. Protein solutions were incubated at 4° C. overnight to allow refolding. Refolded proteases were centrifuged at 30,000×g for 10 minutes to remove residual precipitates. Final protein concentrations were then measured and the NS3 proteases were aliquoted, snap frozen in liquid nitrogen and stored at −80° C.
Purified NS3 protease domain (amino acids 1-181) of the genotype 1b and 3a virus were generated as above. The internally quenched fluorogenic depsipeptide substrate Ac-DED(Edans)-EEAbuψ[COO]ASK(Dabcyl)-NH2 and a synthetic peptide containing the hydrophobic core residues of the NS4A protein cofactor ([…]; NS4A peptide) were obtained from Anaspec, Inc. (San Jose, Calif.). Other chemicals and biochemicals were of reagent grade or better and were purchased from standard suppliers.
Reactions were run at room temperature in buffer consisting of 50 mM HEPES, 40% glycerol, 0.05% Triton X-100, 10 mM DTT, and 10% DMSO. The final assay solutions contained 50 pM NS3 genotype 1b protease or 200 pM genotype 3a protease, 20 μM NS4A peptide, and 4 μM substrate (genotype 1 b) or 2 μM substrate (genotype 3a). Inhibitor concentrations varied from 100 nM to 5 pM in 3-fold dilutions, and no-inhibitor controls were included.
Compound dilutions were made in DMSO at 20× final concentration. Reaction mixtures were prepared in 96-well assay plates. A solution of enzyme and NS4A peptide in assay buffer (25 μL volume with both reagents at 4× final concentration) was mixed with 45 μL assay buffer and 5 μL of either inhibitor or DMSO, and pre-incubated at room temperature for 1 hour. The reaction was started by addition of 25 μL substrate solution at 4× final concentration. […]
As for `COc1ccc2nc3c(nc2c1)O[C@H]1CN(C(=O)[C@H](C(C)(C)C)NC(=O)O[C@@H]2CCC[C@H]2CCCCC3)[C@H](C(=O)N[C@]2(C(=O)NS(=O)(=O)C3CC3)C[C@H]2C(F)F)[C@@H]1C` [Example 28, (3aR,7S,10S,11S,12R,24aR)-7-tert-butyl-N-[(1R,2R)-1-[(cyclopropylsulfonyl)carbamoyl]-2-(difluoromethyl)cyclopropyl]-16-methoxy-11-methyl-5,8-dioxo-1,2,3,3a,5,6,7,8,11,12,20,21,22,23,24,24a-hexadecahydro-10H-9,12-methanocyclopenta[18,19][1,10,3,6]dioxadiazacyclononadecino[11,12-b]quinoxaline-10-carboxamide], the Ki is 0.08 nM.
The same measure, in the same setting: under `CC[C@@H]1[C@@H]2CN(C(=O)[C@H](C(C)(C)C)NC(=O)O[C@@H]3C[C@H]3CCCCC(F)(F)c3nc4ccc(OC)cc4nc3O2)[C@@H]1C(=O)N[C@]1(C(=O)NS(=O)(=O)C2CC2)C[C@H]1CC` [Example 34, (1aR,5S,8S,9S,10R,22aR)-5-tert-butyl-N-{(1R,2R)-1-[(cyclopropylsulfonyl)carbamoyl]-2-ethylcyclopropyl}-9-ethyl-18,18-difluoro-14-methoxy-3,6-dioxo-1,1a,3,4,5,6,9,10,18,19,20,21,22,22a-tetradecahydro-8H-7,10-methanocyclopropa[18,19][1,10,3,6]dioxadiazacyclononadecino[11,12-b]quinoxaline-8-carboxamide] stands 0.28 nM; under `CC[C@@H]1[C@@H]2CN(C(=O)[C@H](C(C)(C)C)NC(=O)O[C@@H]3C[C@H]3CCCCC(F)(F)c3nc4ccc(OC)cc4nc3O2)[C@@H]1C(=O)N[C@]1(C(=O)NS(=O)(=O)C2(C)CC2)C[C@H]1CC(F)F` [Example 35, (1aR,5S,8S,9S,10R,22aR)-5-tert-butyl-N-[(1R,2S)-2-(2,2-difluoroethyl)-1-{[(1-methylcyclopropyl)sulfonyl]carbamoyl}cyclopropyl]-9-ethyl-18,18-difluoro-14-methoxy-3,6-dioxo-1,1a,3,4,5,6,9,10,18,19,20,21,22,22a-tetradecahydro-8H-7,10-methanocyclopropa[18,19][1,10,3,6]dioxadiazacyclononadecino[11,12-b]quinoxaline-8-carboxamide], 0.23 nM; under `CC[C@@H]1[C@@H]2CN(C(=O)[C@H](C(C)(C)C)NC(=O)O[C@@H]3[C@H]4CC[C@H](C4)[C@H]3CCCCCc3nc4ccc(OC)cc4nc3O2)[C@@H]1C(=O)N[C@]1(C(=O)NS(=O)(=O)C2(C)CC2)C[C@H]1C(F)F` [Example 37, (1R,4S,4aR,8S,11S,12S,13R,25aR)-8-tert-butyl-N-[(1R,2R)-2-(difluoromethyl)-1-{[(1-methylcyclopropyl)sulfonyl]carbamoyl}cyclopropyl]-12-ethyl-17-methoxy-6,9-dioxo-2,3,4,4a,6,7,8,9,12,13,21,22,23,24,25,25a-hexadecahydro-1H,11H-1,4:10,13-dimethanoquinoxalino[2,3-k][1,10,3,6]benzodioxadiazacyclononadecine-11-carboxamide], 0.19 nM.
The same measure, in the same setting: for `CC[C@@H]1[C@@H]2CN(C(=O)[C@H](C(C)(C)C)NC(=O)O[C@]3(C)CCC[C@H]3CCCCCc3nc4ccc(OC)cc4nc3O2)[C@@H]1C(=O)N[C@]1(C(=O)NS(=O)(=O)C2CC2)C[C@H]1C(F)F` [Example 40, (3aR,7S,10S,11S,12R,24aR)-7-tert-butyl-N-[(1R,2R)-1-[(cyclopropylsulfonyl)carbamoyl]-2-(difluoromethyl)cyclopropyl]-11-ethyl-16-methoxy-3a-methyl-5,8-dioxo-1,2,3,3a,5,6,7,8,11,12,20,21,22,23,24,24a-hexadecahydro-10H-9,12-methanocyclopenta[18,19][1,10,3,6]dioxadiazacyclononadecino[11,12-b]quinoxaline-10-carboxamide] the value was 0.18 nM; for `COc1ccc2nc3c(nc2c1)O[C@H]1CN(C(=O)[C@H](C(C)(C)C)NC(=O)O[C@@]2(C)C[C@@H]2CCCCC3)[C@H](C(=O)N[C@]2(C(=O)NS(=O)(=O)C3(C)CC3)C[C@H]2C(F)F)[C@@H]1C` [Example 45, (1aS,5S,8S,9S,10R,22aS)-5-tert-butyl-N-[(1R,2R)-2-(difluoromethyl)-1-{[(1-methylcyclopropyl)sulfonyl]carbamoyl}cyclopropyl]-14-methoxy-1a,9-dimethyl-3,6-dioxo-1,1a,3,4,5,6,9,10,18,19,20,21,22,22a-tetradecahydro-8H-7,10-methanocyclopropa[18,19][1,10,3,6]dioxadiazacyclononadecino[11,12-b]quinoxaline-8-carboxamide], 0.48 nM.

Staying with this experiment, now noted: read-out: Ki 3A, 200 pM enzyme, 20 μM NS4A peptide, 2 μM substrate.
On to `C=C[C@@H]1C[C@]1(NC(=O)[C@@H]1[C@H](C)[C@@H]2CN1C(=O)[C@H](C(C)(C)C)NC(=O)O[C@@H]1C[C@H]1CCCCCc1nc3ccc(OC)cc3nc1O2)C(=O)NS(=O)(=O)C1CC1` [Example 48, (1aR,5S,8S,9S,10R,22aR)-5-tert-butyl-N-{(1R,2S)-1-[(cyclopropylsulfonyl)carbamoyl]-2-ethenylcyclopropyl}-14-methoxy-9-methyl-3,6-dioxo-1,1a,3,4,5,6,9,10,18,19,20,21,22,22a-tetradecahydro-8H-7,10-methanocyclopropa[18,19][1,10,3,6]dioxadiazacyclononadecino[11,12-b]quinoxaline-8-carboxamide], for which the Ki turned out to be 0.09 nM.
Still for that read-out and setting: for `COc1ccc2nc3c(nc2c1)O[C@H]1CN(C(=O)[C@H](C(C)(C)C)NC(=O)O[C@@H]2C[C@@H]4C[C@@H]4[C@H]2CCCCC3)[C@H](C(=O)N[C@]2(C(=O)NS(=O)(=O)C3(C)CC3)C[C@H]2C(F)F)[C@@H]1C` [Example 49, (1aS,2aR,6S,9S,10S,11R,23aR,23bS)-6-tert-butyl-N-[(1R,2R)-2-(difluoromethyl)-1-{[(1-methylcyclopropyl)sulfonyl]carbamoyl}cyclopropyl]-15-methoxy-10-methyl-4,7-dioxo-1a,2,2a,4,5,6,7,10,11,19,20,21,22,23,23a,23b-hexadecahydro-1H,9H-8,11-methanocyclopropa[4′,5′]cyclopenta[1′,2′:18,19][1,10,3,6]dioxadiazacyclononade cino[11,12-b]quinoxaline-9-carboxamide] the value was 0.07 nM.
